Results on seven compounds are retold here after paper PMC4785745, “Genome-wide analysis identifies gain and loss/change of function within the small multigenic insecticidal Albumin 1 family of Medicago truncatula” (BMC Plant Biology, 2016).

Bridge positions count the residues as written; N and C are the ends. Ends that are not written are not given here. Peptide text beside a SMILES is read from it.

One test deals with PA1b binding site. Nature of the test: Ligand binding to the PA1b-binding site using 125I-PA1b. Conditions: for binding to the PA1b-binding site (in words): 125I-PA1b ligand binding; for Ki: affinity to the PA1b binding site, ligand binding using 125I-PA1b, according to [12], '-' = no binding in the range assayed. How it is done: The affinity of synthetic peptides for the PA1b-binding site was determined by ligand binding using ^125I-toxin [12].

The subject of the next test is Sf9 cells. The format is cell-based, Spodoptera frugiperda. To be noted: for LC50: cultured Sf9 cells, 15 000 cells/well, 24 h exposure, 27 °C, CellTiter-Blue, according to Rahioui et al. [32], '-' = no toxicity in the range assayed. How it is done:
Sf9 cells lines were grown at 27 °C in Lonza’s culture medium, supplemented with 5 % fetal bovine serum (FBS) and 0.1 % gentamicin. Sf9 cells were seeded, in 96-well plates, 24 h prior to the experiments (15 000 cells/well) and were exposed to increasing concentrations of synthetic peptide. After this 24 h period, cell viability was determined using the CellTiter-Blue Viability Assay (Promega), according to the manufacturer’s instructions. After addition of the dye, the cells were incubated at 27 °C for 4 h. The absorbance, at 570 and 600 nm, was then measured using a microplate reader (MR 7000, Dynatech Laboratories Inc., USA).
(Alamar Blue is a resazurin reagent that responds to reducing activity.)

In test [1] the test system is Sf9 cell ramp membrane current. Nature of the test: Whole-cell patch-clamp: blockage of Sf9 cell ramp membrane current. The test is classed as cell-based, Spodoptera frugiperda. Conditions: Sf9 cells; for EC50: whole-cell patch clamp, voltage ramps 1.5 s from −100 to 90 mV, measured at +50 mV, Hill fit with 100 % blockage as fixed maximum, mean ± S.E., n = 9 (AG41), n = 8 (PA1b), SEM, read-out: EC50, inhibition of ramp membrane current. How it is done: We further investigated the AG41’s biological activity by performing an electrophysiological experiment on cultured Sf9 cells to check whether its cell-membrane ion transport alteration differed from that of PA1b, the model pea peptide. […] At 35 nM, AG41 decreased by approximately 35 % the ramp current amplitude measured at +50 mV (from 68 pA to 44 pA), while a similar concentration of 37.5 nM PA1b had no effect (trace from AG41 even differed from control at 3.5 nM).
Current recordings were made at room temperature, under voltage clamp using the whole-cell configuration of the patch-clamp technique. Command voltage and data acquisition were performed with pClamp software (Axon Instruments, Foster city, CA, USA). The holding potential was −80 mV. Membrane currents were evoked, every 10 s, by voltage ramps of 1.5 s in duration applied from −100 to 90 mV, filtered at 300 Hz and sampled at 1 kHz with an analogue-to-digital converter (Labmaster TM 40, Scientific Solutions Inc., Solon OH, USA). The external solution contained (in mM): 135 NaCl, 4 KCl, 2 MgCl2, 10 CaCl2 and 10 Mes, adjusted to pH 6.4 with NaOH. The internal solution contained (in mM): 140 K-aspartate, 1 MgCl2, 3 K2-ATP, 5 EGTA and 5 Hepes, adjusted to pH 7.2 with KOH. Salts were purchased from Sigma-Aldrich and peptides were prepared as 60 % (v/v) ethanol stock solution as previously described.
Biological results are expressed as the mean ± S.E.M., n indicating the number of Sf9 cells studied (electrophysiology). Statistical comparisons were made using a Mann–Whitney U or Wilcoxon tests at the 95 % confidence level.
For orientation: The patch-clamp technique gives a direct electrical read-out from membranes.

Another test deals with Sitophilus. The test is classed as in vivo. To be noted: standard Sitophilus mortality assay [17]; data not shown.

Usually Ki stands for the equilibrium dissociation constant of an inhibitor or competing ligand from its target. A high value points to lower affinity. Usually LC50 stands for the concentration that kills 50% of the test population. High values mean a less lethal substance, low ones a more lethal substance. As for “GQCARVGMRCSRALPNPCGDIVTCRCVHLHLVGSTCIDYTGDGL (disulfide 3-24, 10-26, 18-36) [GL44]”, in the test with PA1b binding site, the “binding to the PA1b-binding site (in words)” value (shortened to “binding”) is listed as “did not present binding” and the Ki is greater than 0.694 µM. In addition, in the test with Sf9 cells, the LC50 entry is “- ((−) scores a negative result (no toxicity nor binding in the toxin range assayed))”.

As usually defined, the EC50 is the concentration at which the effect is half-maximal. `CC[C@H](C)[C@@H]1NC(=O)[C@H](C(C)C)NC(=O)[C@H](CC(C)C)NC(=O)CNC(=O)[C@H](C(C)C)NC(=O)[C@@H]2CCCN2C(=O)[C@H]([C@@H](C)CC)NC(=O)[C@@H]2CSSC[C@@H]3NC(=O)[C@H](C(C)C)NC(=O)CNC(=O)[C@H](CC(N)=O)NC(=O)[C@@H](NC(=O)[C@H](CO)NC(=O)[C@H](C)N)CSSC[C@H](NC(=O)[C@H](C)NC(=O)[C@H](CO)NC(=O)[C@H]([C@@H](C)O)NC(=O)CNC(=O)[C@H](CSSC[C@@H](C(=O)N[C@@H](CCCNC(=N)N)C(=O)N[C@@H](CC(N)=O)C(=O)N4CCC[C@H]4C(=O)N[C@@H](CO)C(=O)NCC(=O)O)NC(=O)[C@H](Cc4ccc(O)cc4)NC(=O)CNC1=O)NC(=O)[C@@H]1CCCN1C(=O)[C@@H]1CCCN1C(=O)[C@H](CCSC)NC(=O)[C@H](CCC(=O)O)NC(=O)[C@H](Cc1ccccc1)NC(=O)[C@@H]1CCCN1C(=O)[C@H](CO)NC3=O)C(=O)N[C@@H](CCCNC(=N)N)C(=O)N2` [PA1b, reference compound] (H-ASCNGVCSPFEMPPCGTSACRCIPVGLVIGYCRNPSG-OH; disulfide 3-20, 7-22, 15-32; N-terminus and C-terminus assumed) came in with a Ki on PA1b binding site of 0.017 ± 0.0011 µM. In the test on Sf9 cells, this compound gave an LC50 of 0.0798 ± 0.0036 µM. The “effect on ramp membrane current (in words)” value in test [1] (37.5 nM peptide) is given as “no effect”. The EC50 in test [1] was found to be 0.415 ± 0.0756 µM.

As to “DEC-W-G-PCSVLQTPP-CPLSK CYCIPLFLVVGY---CSHASS (bicyclic or more) [DS37, synthetic folded Medicago truncatula A1b peptide, cluster 1, non-canonical CYC motif]”, the “binding” value in the test on PA1b binding site is “did not present binding”. Also, the LC50 result in the test on Sf9 cells was “- ((−) scores a negative result (no toxicity nor binding in the toxin range assayed))”. Also, the “toxicity in Sitophilus mortality assay (in words)” value (from here on “toxicity … (in words)”) with Sitophilus is listed as “not toxic”.

Consider `CC[C@H](C)[C@@H]1NC(=O)[C@H](Cc2ccccc2)NC(=O)[C@@H]2CSSC[C@@H]3NC(=O)[C@H](C)NC(=O)[C@H](CCC(=O)O)NC(=O)CNC(=O)[C@@H](NC(=O)[C@H](CCCCN)NC(=O)[C@H](C)N)CSSC[C@H](NC(=O)CNC(=O)[C@H](CC(=O)O)NC(=O)CNC(=O)[C@H](C)NC(=O)[C@H](CC(N)=O)NC(=O)[C@H](CSSC[C@@H](C(=O)N[C@@H](C)C(=O)N[C@@H](CCC(N)=O)C(=O)N[C@@H](CC(C)C)C(=O)N[C@@H](CO)C(=O)N[C@H](C(=O)O)[C@@H](C)O)NC(=O)[C@H](Cc4ccccc4)NC(=O)CNC(=O)[C@@H]4CCCN4C(=O)[C@H](CC(C)C)NC(=O)[C@H]([C@@H](C)O)NC(=O)[C@H](CC(C)C)NC(=O)[C@H](Cc4ccc(O)cc4)NC(=O)[C@H](C)NC(=O)[C@H](CC(=O)O)NC(=O)[C@H]([C@@H](C)O)NC1=O)NC(=O)[C@H](Cc1ccccc1)NC(=O)[C@H](CC(N)=O)NC(=O)[C@H](Cc1ccccc1)NC(=O)[C@H](CCC(N)=O)NC(=O)[C@H]([C@@H](C)O)NC(=O)[C@H](CC(=O)O)NC3=O)C(=O)N[C@@H](CCCNC(=N)N)C(=O)N2` [AS40] (H-AKCGEACDTQFNFCNAGDGCRCFITDAYLTLPGFCAQLST-OH; disulfide 3-20, 7-22, 14-35 (inferred); N-terminus and C-terminus assumed), for which, in the test with PA1b binding site, the “binding” value was “revealed binding properties” and the affinity, expressed as Ki, was 0.0103 ± 0.002 µM. The same compound had an LC50 in the test on Sf9 cells of 0.047 ± 0.0022 µM.

For the compound `CC[C@H](C)[C@@H]1NC(=O)CNC(=O)[C@H](CO)NC(=O)[C@@H](NC(=O)[C@H](CC(=O)O)NC(=O)[C@H](C)N)CSSC[C@@H]2NC(=O)[C@H](CC(=O)O)NC(=O)[C@H](CO)NC(=O)[C@H](CO)NC(=O)[C@H](CCCNC(=N)N)NC(=O)[C@@H]3CSSC[C@@H](C(=O)N[C@H](C(=O)N[C@@H](CC(N)=O)C(=O)N4CCC[C@H]4C(=O)N[C@H](C(=O)N[C@@H](CO)C(=O)O)[C@@H](C)CC)[C@@H](C)CC)NC(=O)[C@H](Cc4ccccc4)NC(=O)CNC(=O)CNC(=O)[C@H]([C@@H](C)CC)NC(=O)[C@H](CC(C)C)NC(=O)[C@H](C)NC(=O)[C@H]([C@@H](C)CC)NC(=O)[C@@H]4CCCN4C(=O)[C@H]([C@@H](C)CC)NC(=O)[C@H](CSSC[C@H](NC1=O)C(=O)N[C@@H](CO)C(=O)N1CCC[C@H]1C(=O)N[C@@H](Cc1ccccc1)C(=O)N[C@@H](CCC(=O)O)C(=O)N[C@@H](CCSC)C(=O)N1CCC[C@H]1C(=O)N1CCC[C@H]1C(=O)N3)NC(=O)[C@H](CCCNC(=N)N)NC2=O` [AS37] (H-ADCSGICSPFEMPPCRSSDCRCIPIALIGGFCINPIS-OH; disulfide 3-20, 7-22, 15-32 (inferred); N-terminus and C-terminus assumed), in the test on PA1b binding site, the “binding” value is “revealed binding properties” and the Ki amounted to 0.015 ± 0.002 µM. In the test on Sf9 cells, the LC50 is 0.107 ± 0.0032 µM. Moreover, in the test on Sitophilus, the “toxicity … (in words)” value is listed as “toxic”.

Regarding “EFCSSVGSFCSPFNTNPCGYLGNCRCVPYYLYGGTCENPFG (disulfide 3-24, 10-26, 18-36 (inferred)) [EG41]”, in the test with PA1b binding site, the “binding” value is given as “revealed binding properties” and affinity was put at a Ki of 0.0728 ± 0.0027 µM. The LC50 with Sf9 cells came to 0.075 ± 0.0031 µM.

Take “ASCPNVGAVCSPFETKPCGNVKDCRCLPWGLFFGTCINPTG (disulfide 3-24, 10-26, 18-36 (inferred)) [AG41]”: in the test with PA1b binding site, the “binding” value is “revealed binding properties” and affinity was put at a Ki of 0.0013 ± 0.0006 µM. The “toxicity relative to the original pea albumin 1b” value in the test with Sf9 cells (compared with PA1b, Table 1) is “almost ten times superior”. The same compound yielded an LC50 with Sf9 cells of 0.00544 ± 0.0017 µM. The “decrease of ramp current amplitude measured at +50 mV” value in test [1] (35 nM peptide) was “approximately 35%”. For the same compound, the “ramp current amplitude measured at +50 mV” value in test [1] (35 nM peptide (control 68 pA)) worked out at 44 pA. Besides, the EC50 in test [1] was found to be 0.0146 ± 0.0004 µM. In addition, the “toxicity … (in words)” value in the test on Sitophilus is given as “highly toxic”.
